Experimental findings from patent US11001586B2, “Alkyl pyrrolopyrimidine analogs and methods of making and using same” (The University of North Carolina at Chapel Hill, priority 2016, dated 2021) are described below.

Structures are written as SMILES. Some results are limits rather than exact numbers.

The target of one assay is Tyro3 tyrosine kinase (Homo sapiens (Human), UniProt Q06418). Nature of the assay: Evaluation of activity against Tyro3 tyrosine kinase. It counts as biochemical.
The next assay addresses Mer tyrosine kinase (Homo sapiens (Human), UniProt Q12866). As to the kind of experiment: Evaluation of activity against Mer tyrosine kinase. The assay is classed as biochemical.

Chain of Mer tyrosine kinase (Q12866 21-999): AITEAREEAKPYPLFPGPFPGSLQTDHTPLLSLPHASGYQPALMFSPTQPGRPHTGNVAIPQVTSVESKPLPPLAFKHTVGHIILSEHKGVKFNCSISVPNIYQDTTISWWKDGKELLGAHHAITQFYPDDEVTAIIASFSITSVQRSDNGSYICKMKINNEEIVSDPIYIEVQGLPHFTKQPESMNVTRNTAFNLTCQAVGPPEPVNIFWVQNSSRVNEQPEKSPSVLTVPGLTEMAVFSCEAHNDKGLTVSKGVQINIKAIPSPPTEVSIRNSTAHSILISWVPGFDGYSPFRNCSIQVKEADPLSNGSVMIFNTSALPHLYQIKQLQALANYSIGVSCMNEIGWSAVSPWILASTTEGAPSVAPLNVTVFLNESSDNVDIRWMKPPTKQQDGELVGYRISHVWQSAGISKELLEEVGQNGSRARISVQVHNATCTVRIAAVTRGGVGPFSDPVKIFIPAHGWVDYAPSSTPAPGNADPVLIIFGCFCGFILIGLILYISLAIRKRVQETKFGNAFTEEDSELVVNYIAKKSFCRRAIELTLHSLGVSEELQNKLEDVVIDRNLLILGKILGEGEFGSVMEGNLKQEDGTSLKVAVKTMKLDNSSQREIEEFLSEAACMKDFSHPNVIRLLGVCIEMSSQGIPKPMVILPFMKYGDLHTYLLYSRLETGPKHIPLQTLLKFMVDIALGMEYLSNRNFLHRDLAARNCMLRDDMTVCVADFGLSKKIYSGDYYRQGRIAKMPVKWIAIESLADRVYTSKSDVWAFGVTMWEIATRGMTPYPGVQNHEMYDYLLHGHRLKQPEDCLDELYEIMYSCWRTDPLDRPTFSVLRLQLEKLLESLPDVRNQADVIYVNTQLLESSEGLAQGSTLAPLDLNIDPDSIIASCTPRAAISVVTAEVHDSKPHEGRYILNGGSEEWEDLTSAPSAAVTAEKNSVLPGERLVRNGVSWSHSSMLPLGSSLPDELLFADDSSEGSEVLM
Chain of Tyro3 tyrosine kinase (Q06418 41-890): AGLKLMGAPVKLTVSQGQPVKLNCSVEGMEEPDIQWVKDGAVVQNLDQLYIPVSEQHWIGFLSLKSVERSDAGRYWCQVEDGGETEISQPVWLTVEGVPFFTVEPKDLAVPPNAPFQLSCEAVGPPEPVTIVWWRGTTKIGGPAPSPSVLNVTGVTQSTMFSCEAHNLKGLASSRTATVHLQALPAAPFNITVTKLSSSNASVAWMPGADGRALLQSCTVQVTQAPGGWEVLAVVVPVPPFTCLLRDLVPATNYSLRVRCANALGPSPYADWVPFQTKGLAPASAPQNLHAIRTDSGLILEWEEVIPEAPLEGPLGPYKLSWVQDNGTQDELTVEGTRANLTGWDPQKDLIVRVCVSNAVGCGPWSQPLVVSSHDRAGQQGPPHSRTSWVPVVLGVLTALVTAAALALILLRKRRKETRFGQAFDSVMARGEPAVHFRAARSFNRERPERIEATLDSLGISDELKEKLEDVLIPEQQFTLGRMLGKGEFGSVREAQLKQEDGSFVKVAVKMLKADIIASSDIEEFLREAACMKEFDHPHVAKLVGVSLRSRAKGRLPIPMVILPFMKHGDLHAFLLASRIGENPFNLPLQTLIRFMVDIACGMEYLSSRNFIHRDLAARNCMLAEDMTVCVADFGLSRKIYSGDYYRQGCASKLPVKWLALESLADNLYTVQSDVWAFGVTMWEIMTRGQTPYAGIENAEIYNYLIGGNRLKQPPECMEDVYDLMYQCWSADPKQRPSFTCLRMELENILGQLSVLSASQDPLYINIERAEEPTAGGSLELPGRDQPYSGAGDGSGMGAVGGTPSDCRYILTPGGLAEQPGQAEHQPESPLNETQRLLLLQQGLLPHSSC

On to `CCC[C@H](C)Nc1ncc2c(C3CCN(C(=O)c4ccc(CN(C)C)cc4)CC3)cn([C@H]3CC[C@H](O)CC3)c2n1` [compound 87, (4-((dimethylamino)methyl)phenyl)(4-(7-((1R,4S)-4-hydroxycyclohexyl)-2-(((S)-pentan-2-yl)amino)-7H-pyrrolo[2,3-d]pyrimidin-5-yl)piperidin-1-yl)methanone], for which the IC50 was 0.01 to 0.1 µM on Tyro3 tyrosine kinase and under 0.01 µM at Mer tyrosine kinase.

Regarding `CC[C@H]1C[C@@H]1Nc1ncc2c(C3CCN(C(=O)c4ccncc4)CC3)cn([C@H]3CC[C@H](O)CC3)c2n1` [compound 42, (4-(2-(((1S,2S)-2-ethylcyclopropyl)amino)-7-((1R,4S)-4-hydroxycyclohexyl)-7H-pyrrolo[2,3-d]pyrimidin-5-yl)piperidin-1-yl)(pyridin-4-yl)methanone], the figures for the IC50 against Tyro3 tyrosine kinase and against Mer tyrosine kinase were 0.1 to 1 µM and under 0.01 µM, respectively.

Take `CCC[C@H](C)Nc1ncc2c(C3CCN(CC4CCN(C)CC4)CC3)cn([C@H]3CC[C@H](O)CC3)c2n1` [compound 54, (1S,4R)-4-(5-(1-((1-methylpiperidin-4-yl)methyl)piperidin-4-yl)-2-(((S)-pentan-2-yl)amino)-7H-pyrrolo[2,3-d]pyrimidin-7-yl)cyclohexan-1-ol]: the figures for the half-maximal inhibitory concentration (IC50) against Tyro3 tyrosine kinase and on Mer tyrosine kinase were 0.01 to 0.1 µM and under 0.01 µM, respectively.

Consider `CCCCNc1ncc2c(C3CC4CCC(C3)N4)cn([C@H]3CC[C@H](O)CC3)c2n1` (stereo partly drawn) [compound 12, (1R,4R)-4-(5-((1R,3S,5S)-8-azabicyclo[3.2.1]octan-3-yl)-2-(butylamino)-7H-pyrrolo[2,3-d]pyrimidin-7-yl)cyclohexan-1-ol], for which the IC50 at Tyro3 tyrosine kinase lay in the range of 1 to 30 µM.

For the compound `Cc1cc(C(=O)N2CCC(c3cn([C@H]4CC[C@H](O)CC4)c4nc(NCCCC(F)(F)F)ncc34)CC2)cc(C)n1` [compound 101, (2,6-dimethylpyridin-4-yl)(4-(7-((1r,4r)-4-hydroxycyclohexyl)-2-((4,4,4-trifluorobutyl)amino)-7H-pyrrolo[2,3-d]pyrimidin-5-yl)piperidin-1-yl)methanone], the values for the concentration for half-maximal inhibition (IC50) at Tyro3 tyrosine kinase and against Mer tyrosine kinase were 1 to 30 µM and under 0.01 µM, respectively.

Consider `CCC[C@H](C)Nc1ncc2c(C3CCN(C(=O)c4cc(C)nc(C)c4)CC3)cn([C@H]3CC[C@H](C(F)F)CC3)c2n1` [compound 88, (4-(7-((1R,4S)-4-(difluoromethyl)cyclohexyl)-2-(((S)-pentan-2-yl)amino)-7H-pyrrolo[2,3-d]pyrimidin-5-yl)piperidin-1-yl)(2,6-dimethylpyridin-4-yl)methanone], for which the half-inhibitory concentration (IC50) at Tyro3 tyrosine kinase is 0.1 to 1 µM; on Mer tyrosine kinase it was under 0.01 µM.

With `CCC[C@H](C)Nc1ncc2c(C3CCN(C(=O)c4ccc(OC)cc4)CC3)cn([C@H]3CC[C@H](O)CC3)c2n1` [compound 31, (4-(7-((1R,4S)-4-hydroxycyclohexyl)-2-(((S)-pentan-2-yl)amino)-7H-pyrrolo[2,3-d]pyrimidin-5-yl)piperidin-1-yl)(4-methoxyphenyl)methanone], the half-maximal inhibitory concentration (IC50) on Tyro3 tyrosine kinase is 0.1 to 1 µM; against Mer tyrosine kinase it was under 0.01 µM.

Regarding `CCC[C@H](C)Nc1ncc2c(C3CCN(C(=O)c4ccc(Cl)cc4)CC3)cn([C@H]3CC[C@H](O)CC3)c2n1` [compound 84, (4-chlorophenyl)(4-(7-((1R,4S)-4-hydroxycyclohexyl)-2-(((S)-pentan-2-yl)amino)-7H-pyrrolo[2,3-d]pyrimidin-5-yl)piperidin-1-yl)methanone], the values for the IC50 on Tyro3 tyrosine kinase and at Mer tyrosine kinase were 0.1 to 1 µM and under 0.01 µM, respectively.

For the compound `CCC[C@H](C)Nc1ncc2c(C3CCN(C(=O)c4cc(C)nc(C)c4)CC3)cn(C[C@H]3CC[C@H](N)CC3)c2n1` [compound 102, (4-(7-(((1R,4S)-4-aminocyclohexyl)methyl)-2-(((S)-pentan-2-yl)amino)-7H-pyrrolo[2,3-d]pyrimidin-5-yl)piperidin-1-yl)(2,6-dimethylpyridin-4-yl)methanone], the half-inhibitory concentration (IC50) against Tyro3 tyrosine kinase was 0.1 to 1 µM; at Mer tyrosine kinase, under 0.01 µM.

In the case of `CCC[C@H](C)Nc1ncc2c(C3CCN(C(=O)c4ccc(F)cc4)CC3)cn([C@H]3CC[C@H](O)CC3)c2n1` [compound 89, (4-fluorophenyl)(4-(7-((1R,4S)-4-hydroxycyclohexyl)-2-(((S)-pentan-2-yl)amino)-7H-pyrrolo[2,3-d]pyrimidin-5-yl)piperidin-1-yl)methanone], the half-inhibitory concentration (IC50) is 0.1 to 1 µM against Tyro3 tyrosine kinase and under 0.01 µM on Mer tyrosine kinase.

On to `CCC[C@H](C)Nc1ncc2c(C3CCN(C(=O)c4cccc(OC)c4)CC3)cn([C@H]3CC[C@H](O)CC3)c2n1` [compound 32, (4-(7-((1R,4S)-4-hydroxycyclohexyl)-2-(((S)-pentan-2-yl)amino)-7H-pyrrolo[2,3-d]pyrimidin-5-yl)piperidin-1-yl)(3-methoxyphenyl)methanone], for which the IC50 was 0.1 to 1 µM on Tyro3 tyrosine kinase and under 0.01 µM on Mer tyrosine kinase.

`CC[C@@H]1C[C@H]1Nc1ncc2c(C3CCN(C(=O)c4ccncc4)CC3)cn([C@H]3CC[C@H](O)CC3)c2n1` [compound 43, (4-(2-(((1R,2R)-2-ethylcyclopropyl)amino)-7-((1R,4R)-4-hydroxycyclohexyl)-7H-pyrrolo[2,3-d]pyrimidin-5-yl)piperidin-1-yl)(pyridin-4-yl)methanone]: the half-inhibitory concentration (IC50) on Tyro3 tyrosine kinase was 0.1 to 1 µM; on Mer tyrosine kinase it was under 0.01 µM.

With `CCC[C@H](C)Nc1ncc2c(C3CCN(C(=O)CCOC)CC3)cn([C@H]3CC[C@H](O)CC3)c2n1` [compound 9, 1-(4-(7-((1R,4S)-4-hydroxycyclohexyl)-2-(((S)-pentan-2-yl)amino)-7H-pyrrolo[2,3-d]pyrimidin-5-yl)piperidin-1-yl)-3-methoxypropan-1-one], the IC50 was 0.1 to 1 µM against Tyro3 tyrosine kinase and under 0.01 µM at Mer tyrosine kinase.

For the compound `CCC[C@H](C)Nc1ncc2c(C3CCN(C(=O)C4CN(C)C4)CC3)cn([C@H]3CC[C@H](O)CC3)c2n1` [compound 14, (4-(7-((1R,4S)-4-hydroxycyclohexyl)-2-(((S)-pentan-2-yl)amino)-7H-pyrrolo[2,3-d]pyrimidin-5-yl)piperidin-1-yl)(1-methylazetidin-3-yl)methanone], the 50% inhibitory concentration (IC50) is 0.01 to 0.1 µM on Tyro3 tyrosine kinase and under 0.01 µM against Mer tyrosine kinase.

As to `CCC[C@H](C)Nc1ncc2c(C3CCN(C(=O)C4CCNC4)CC3)cn([C@H]3CC[C@H](O)CC3)c2n1` (stereo partly drawn) [compound 17, (4-(7-((1R,4S)-4-hydroxycyclohexyl)-2-(((S)-pentan-2-yl)amino)-7H-pyrrolo[2,3-d]pyrimidin-5-yl)piperidin-1-yl)(pyrrolidin-3-yl)methanone], the half-maximal inhibitory concentration (IC50) against Tyro3 tyrosine kinase is 0.01 to 0.1 µM; on Mer tyrosine kinase, under 0.01 µM.

Consider `CCC[C@H](C)Nc1ncc2c(C3CCN(C(=O)[C@@H]4CCCNC4)CC3)cn([C@H]3CC[C@H](O)CC3)c2n1` [compound 23, (4-(7-((1R,4S)-4-hydroxycyclohexyl)-2-(((S)-pentan-2-yl)amino)-7H-pyrrolo[2,3-d]pyrimidin-5-yl)piperidin-1-yl)((R)-piperidin-3-yl)methanone], for which the half-maximal inhibitory concentration (IC50) was 0.01 to 0.1 µM against Tyro3 tyrosine kinase and under 0.01 µM against Mer tyrosine kinase.

In the case of `CCC[C@H](C)Nc1ncc2c(C3CCN(C(=O)c4nccs4)CC3)cn([C@H]3CC[C@H](O)CC3)c2n1` [compound 57, (4-(7-((1R,4S)-4-hydroxycyclohexyl)-2-(((S)-pentan-2-yl)amino)-7H-pyrrolo[2,3-d]pyrimidin-5-yl)piperidin-1-yl)(thiazol-2-yl)methanone], the 50% inhibitory concentration (IC50) at Tyro3 tyrosine kinase is 0.1 to 1 µM; on Mer tyrosine kinase, under 0.01 µM.

As to `CCC[C@H](C)Nc1ncc2c(C3CCN(C(=O)c4ccc(N)cc4)CC3)cn([C@H]3CC[C@H](O)CC3)c2n1` [compound 82, (4-aminophenyl)(4-(7-((1R,4S)-4-hydroxycyclohexyl)-2-(((S)-pentan-2-yl)amino)-7H-pyrrolo[2,3-d]pyrimidin-5-yl)piperidin-1-yl)methanone], the IC50 against Tyro3 tyrosine kinase was 0.1 to 1 µM; on Mer tyrosine kinase, under 0.01 µM.

Regarding `CCC[C@H](C)Nc1ncc2c(C3CCN(C(=O)c4cc[nH]c4)CC3)cn([C@H]3CC[C@H](O)CC3)c2n1` [compound 61, (4-(7-((1R,4S)-4-hydroxycyclohexyl)-2-(((S)-pentan-2-yl)amino)-7H-pyrrolo[2,3-d]pyrimidin-5-yl)piperidin-1-yl)(1H-pyrrol-3-yl)methanone], the IC50 is 0.1 to 1 µM on Tyro3 tyrosine kinase and under 0.01 µM against Mer tyrosine kinase.

As to `CCC[C@H](C)Nc1ncc2c(C3CCN(C(=O)C4CCNCC4)CC3)cn([C@H]3CC[C@H](O)CC3)c2n1` [compound 8, (4-(7-((1R,4S)-4-hydroxycyclohexyl)-2-(((S)-pentan-2-yl)amino)-7H-pyrrolo[2,3-d]pyrimidin-5-yl)piperidin-1-yl)(piperidin-4-yl)methanone], the IC50 at Tyro3 tyrosine kinase was 0.01 to 0.1 µM; at Mer tyrosine kinase, under 0.01 µM.

In the case of `CCC(CC)CNc1ncc2c(C3CCN(C(=O)c4cc(C)nc(C)c4)CC3)cn([C@H]3CC[C@H](O)CC3)c2n1` [compound 69, (2,6-dimethylpyridin-4-yl)(4-(2-((2-ethylbutyl)amino)-7-((1r,4r)-4-hydroxycyclohexyl)-7H-pyrrolo[2,3-d]pyrimidin-5-yl)piperidin-1-yl)methanone], the IC50 was 0.01 to 0.1 µM at Tyro3 tyrosine kinase and under 0.01 µM on Mer tyrosine kinase.

On to `Cc1cc(C(=O)N2CCC(c3cn([C@H]4CC[C@H](O)CC4)c4nc(NCCCCO)ncc34)CC2)cc(C)n1` [compound 100, (2,6-dimethylpyridin-4-yl)(4-(2-((4-hydroxybutyl)amino)-7-((1r,4r)-4-hydroxycyclohexyl)-7H-pyrrolo[2,3-d]pyrimidin-5-yl)piperidin-1-yl)methanone], for which the IC50 against Tyro3 tyrosine kinase is 1 to 30 µM; against Mer tyrosine kinase, under 0.01 µM.

Turning to `CCC[C@H](C)Nc1ncc2c(C3CCN(C(=O)c4ccc[nH]4)CC3)cn([C@H]3CC[C@H](O)CC3)c2n1` [compound 60, (4-(7-((1R,4S)-4-hydroxycyclohexyl)-2-(((S)-pentan-2-yl)amino)-7H-pyrrolo[2,3-d]pyrimidin-5-yl)piperidin-1-yl)(1H-pyrrol-2-yl)methanone], the IC50 on Tyro3 tyrosine kinase was 0.1 to 1 µM; against Mer tyrosine kinase, under 0.01 µM.

In the case of `CCC[C@H](C)Nc1ncc2c(C3CCN(C(=O)[C@H]4CCCNC4)CC3)cn([C@H]3CC[C@H](O)CC3)c2n1` [compound 24, (4-(7-((1R,4S)-4-hydroxycyclohexyl)-2-(((S)-pentan-2-yl)amino)-7H-pyrrolo[2,3-d]pyrimidin-5-yl)piperidin-1-yl)((S)-piperidin-3-yl)methanone], the IC50 at Tyro3 tyrosine kinase was 0.01 to 0.1 µM; at Mer tyrosine kinase, under 0.01 µM.
